Tests used:
MEK5 = target: T1, MEK5 (Homo sapiens, UniProt Q13163); assay: Western blot, cellular pERK5 decrease after EGF stimulation; format: cell-based; details: MDA-MB-231 cells, compound 10 μM pretreatment 30 min, then EGF 50 ng/mL 15 min
T1 construct: The MDA-MB-231 triple negative breast cancer cell line was pretreated with compounds; endogenous in cells; host or cells: MDA-MB-231
T1 sequence (Q13163 1-448): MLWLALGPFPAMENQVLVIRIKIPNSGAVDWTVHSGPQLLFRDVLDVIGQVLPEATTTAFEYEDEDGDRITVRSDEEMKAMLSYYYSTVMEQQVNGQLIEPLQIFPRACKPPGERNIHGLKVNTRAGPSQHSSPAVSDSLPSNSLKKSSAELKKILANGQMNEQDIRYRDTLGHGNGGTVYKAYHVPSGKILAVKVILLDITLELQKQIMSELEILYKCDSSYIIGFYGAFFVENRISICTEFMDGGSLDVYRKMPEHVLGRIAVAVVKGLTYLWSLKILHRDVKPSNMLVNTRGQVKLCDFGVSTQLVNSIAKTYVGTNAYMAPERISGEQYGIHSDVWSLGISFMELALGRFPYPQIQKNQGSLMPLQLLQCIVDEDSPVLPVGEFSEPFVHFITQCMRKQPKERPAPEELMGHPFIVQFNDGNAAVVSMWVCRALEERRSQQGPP
Experimental: (§1) Western Blot Analysis of Potential MEK-5 Inhibitors
(§2) The MDA-MB-231 triple negative breast cancer cell line was pretreated with compounds (10 μM) for 30 min followed by stimulation with epidermal growth factor (EGF, 50 ng/mL) for 15 min. Vehicle-treated cells were pretreated with DMSO for 30 min prior to EGF stimulation for 15 min. Protein visualization and quantification analysis was performed using LI-COR Odyssey Imager. *P<0.05 vs. Vehicle, one-way ANOVA followed by Tukey-Kramer test (n=3)

MEK1/2 = assay: Western blot, cellular pERK1/2 decrease after EGF stimulation; format: cell-based; details: MDA-MB-231 cells, compound 10 μM pretreatment 30 min, then EGF 50 ng/mL 15 min
Experimental: as §1, §2

| SMILES | cellular pERK5 decrease (%) (MEK5) | cellular pERK1/2 decrease (%) (MEK1/2) |
| --- | --- | --- |
| COC(=O)c1ccc(F)c(F)c1Nc1ccc(I)cc1F [SC-1-72 Ester] | 20.1% | 98.5% |
| O=C(O)c1ccc(F)c(F)c1Nc1ccc(I)cc1F [SC-1-148, 3,4-Difluoro-2-((2-fluoro-4-iodophenyl)amino)benzoic Acid] | 20.1% | 98.5% |
| CN[C@@H]1C[C@H]2O[C@@](C)([C@@H]1OC)n1c3ccccc3c3c4c(c5c6ccccc6n2c5c31)C(=O)NC4 [staurosporine, reference compound] |  | 98.93% |

Now from value to molecule, other results behind:

| cellular pERK5 decrease (%) (MEK5) | SMILES | cellular pERK1/2 decrease (%) (MEK1/2) |
| --- | --- | --- |
| 2.1% | O=C(O)c1ccc(F)c(F)c1Nc1ccccc1 [SC-1-175] | 64.4% |
| 0.28% | N#CC(=C(/N)Sc1ccccc1N)/C(C#N)=C(\N)Sc1ccccc1N [U0126, reference compound] | 99.72% |
